Where a name gives a salt, the structure may show the parent alone.
The compounds below were run against T1, human recombinant TDO2 enzyme (Homo sapiens, UniProt P48775) (assay: Assay for TDO2 enzymatic activity determination). Conditions: human recombinant TDO2, L-Trp 1 mM, kynurenine absorbance at 480 nm.
T1 construct: made in house
Type: biochemical
Procedure: To measure the TDO2 activity, the procedure described in Dolusic et al. J. Med. Chem.; 2011, 54, […] was adapted: the reaction mixture contained (final concentrations) potassium phosphate buffer (50 mM, pH 7.5), ascorbic acid (0.25 M), methylene blue (0.125 μM), catalase (40 units/mL, from bovine liver, Sigma), and human recombinant TDO2 enzyme (prepared as described in Dolusic et al. J. Med. Chem.; 2011, 54, 5320-5334; 0.9 μg) without or with the compounds of the present invention at the indicated concentrations (total volume 112.5 μL). The reaction was initiated by the addition of 37.5 μL of L-Trp (final concentration 1 mM) at room temperature. The reaction was conducted at room temperature during one hour and stopped by the addition of 30 μL of 30% (w/v) trichloroacetic acid.
To convert N-formylkynurenine into kynurenine, the reaction mixture was incubated at 65° C. for 30 min. Then 150 μL of the reaction mixture was mixed with 120 μL of 2.5% (w/v) 4-(dimethylamino)-benzaldehyde in acetic acid and incubated for 5 min at room temperature. Kynurenine concentrations were determined by measuring the absorbance at 480 nm. A standard curve was made with pure kynurenine. The TDO activity was measured as described above using ten serial concentrations of the compounds of the present invention. Data were fitted using the Prism™ software (GraphPad Software, Inc.) using standard parameters.

T1 sequence (P48775 whole entry): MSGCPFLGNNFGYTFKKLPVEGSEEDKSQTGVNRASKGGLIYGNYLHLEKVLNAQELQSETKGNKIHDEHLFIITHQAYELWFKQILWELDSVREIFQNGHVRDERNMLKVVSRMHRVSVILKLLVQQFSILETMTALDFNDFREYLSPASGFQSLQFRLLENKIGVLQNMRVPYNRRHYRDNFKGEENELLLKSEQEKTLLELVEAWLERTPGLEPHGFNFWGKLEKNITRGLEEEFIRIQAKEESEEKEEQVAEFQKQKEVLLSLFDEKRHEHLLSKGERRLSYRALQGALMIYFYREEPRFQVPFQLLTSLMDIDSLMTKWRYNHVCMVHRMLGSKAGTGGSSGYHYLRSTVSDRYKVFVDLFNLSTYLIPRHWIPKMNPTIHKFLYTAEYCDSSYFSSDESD

Row | IC50 [nM] | Compound
1 | 13800 | CC(=O)N1CCC(n2ncc3ccc(-c4c[nH]c5cc(F)ccc45)cc32)CC1 [Compound 7, 1-(4-(6-(6-fluoro-1H-indol-3-yl)-1H-indazol-1-yl)piperidin-1-yl)ethanone]
2 | 1170 | NC(=O)CCn1ncc2ccc(-c3c[nH]c4cc(F)ccc34)cc21 [Compound 5, 3-(6-(6-fluoro-1H-indol-3-yl)-1H-indazol-1-yl)propanamide]
3 | 948 | Fc1ccc2c(-c3ccc4cn(C5CCNCC5)nc4c3)c[nH]c2c1 [Compound 18, 6-(6-fluoro-1H-indol-3-yl)-2-(piperidin-4-yl)-2H-indazole]
4 | 946 | NC(=O)Cn1ncc2ccc(-c3c[nH]c4cc(F)ccc34)cc21 [Compound 2, 2-(6-(6-fluoro-1H-indol-3-yl)-1H-indazol-1-yl)acetamide]
5 | 2670 | CC(=O)N1CCC(Cn2cc3cc(-c4c[nH]c5cc(F)ccc45)ccc3n2)CC1 [Compound 21, 1-(4-((5-(6-fluoro-1H-indol-3-yl)-2H-indazol-2-yl)methyl)piperidin-1-yl)ethanone]
6 | 2190 | CC(=O)N1CCC(n2cc3ccc(-c4c[nH]c5cc(F)ccc45)cc3n2)CC1 [Compound 19, 1-(4-(6-(6-fluoro-1H-indol-3-yl)-2H-indazol-2-yl)piperidin-1-yl)ethanone]
7 | 2120 | Fc1ccc2c(-c3ccc4cnn(CC5CCNCC5)c4c3)c[nH]c2c1 [Compound 3, 6-(6-fluoro-1H-indol-3-yl)-1-(piperidin-4-ylmethyl)-1H-indazole hydrochloride]
8 | 609 | Fc1ccc2c(-c3ccc4[nH]ncc4c3)c[nH]c2c1 [Compound 8, 5-(6-fluoro-1H-indol-3-yl)-1H-indazole]
9 | 407 | Fc1ccc2c(-c3ccc4c(cnn4C4CCNCC4)c3)c[nH]c2c1 [Compound 13, 5-(6-fluoro-1H-indol-3-yl)-1-(piperidin-4-yl)-1H-indazole]
10 | 188 | Fc1ccc2c(-c3ccc4[nH]cnc4c3)c[nH]c2c1 [Compound 25, 5-(6-fluoro-1H-indol-3-yl)-1H-benzo[d]imidazole]
11 | 1990 | CC(=O)N1CCC(Cn2cc3ccc(-c4c[nH]c5cc(F)ccc45)cc3n2)CC1 [Compound 16, 1-(4-((6-(6-fluoro-1H-indol-3-yl)-2H-indazol-2-yl)methyl)piperidin-1-yl)ethanone]
12 | 680 | CC(=O)N1CCC(Cn2ncc3cc(-c4c[nH]c5cc(F)ccc45)ccc32)CC1 [Compound 11, 1-(4-((5-(6-fluoro-1H-indol-3-yl)-1H-indazol-1-yl)methyl)piperidin-1-yl)ethanone]
13 | 1160 | NC(=O)Cn1cc2ccc(-c3c[nH]c4cc(F)ccc34)cc2n1 [Compound 15, 2-(6-(6-fluoro-1H-indol-3-yl)-2H-indazol-2-yl)acetamide]
14 | 2220 | CC(=O)N1CCC(n2ncc3cc(-c4c[nH]c5cc(F)ccc45)ccc32)CC1 [Compound 14, 1-(4-(5-(6-fluoro-1H-indol-3-yl)-1H-indazol-1-yl)piperidin-1-yl)ethanone]
15 | 935 | NC(=O)CCn1cc2ccc(-c3c[nH]c4cc(F)ccc34)cc2n1 [Compound 17, 3-(6-(6-fluoro-1H-indol-3-yl)-2H-indazol-2-yl)propanamide]
16 | 322 | Fc1ccc2c(-c3ccc4nn(C5CCNCC5)cc4c3)c[nH]c2c1 [Compound 23, 5-(6-fluoro-1H-indol-3-yl)-2-(piperidin-4-yl)-2H-indazole]

Each compound was assayed against T2, human glioblastoma A172 cells, naturally expressing hTDO2 (Homo sapiens, UniProt P48775) (assay: Cellular assay for TDO2 activity, A172 cells). Conditions: overnight incubation, kynurenine in supernatant.
T2 construct: human glioblastoma A172 cells, naturally expressing hTDO2; endogenous in cells; host or cells: human glioblastoma A172 cells (ATCC CRL-1620)
Type: cell-based
Procedure: The compounds of formula I inhibit the activity of human TDO2 in cells that constitutively express TDO2, such as A172 cells. A172 is a cell line derived from human brain glioblastoma cells. The cells are available from the American Type Culture Collection (ATCC®) as CRL-1620™
The assay (adapted from Pilotte L et al., Proc Natl Acad Sci USA, 2012, 109(7), 2497-502) was performed in 96-well flat bottom plates seeded with human glioblastoma A172 cells, naturally expressing hTDO2 (prepared as described in Tilman et al., Mol Cancer, 2007, 17(6), 80), at a concentration of 1.25×10^4 cells/well in a final volume of 200 μL. To determine TDO, the cells were incubated overnight at 37° C. at 5% CO2 in IMDM (Invitrogen) supplemented with 2% FBS and 2% penicillin/streptomycin in the presence of the compounds of the present invention, at different concentrations.
The plates were then centrifuged 5 min at 1000 rpm, and 100 μL of the supernatant were collected in a conical plate, 30 uL of TCA 30% were added and a further centrifugated at 3000×g for 10 minutes. 100 μL of the supernatant were collected in a flat bottomed plate and 100 μL of 2% (w/v) 4-(dimethylamino)-benzaldehyde in acetic acid and incubated for 5 min at room temperature. Kynurenine concentrations were determined by measuring the absorbance at 480 nm. A standard curve was made with pure kynurenine. The TDO activity was measured as described above using ten serial concentrations of the compounds of the present invention. Data were fitted using the Prism™ software (GraphPad Software, Inc.) using standard parameters.

T2 sequence (P48775 whole entry): as above

Row | Compound | IC50 [nM]
17 | NCc1nc2cc(-c3c[nH]c4cc(F)ccc34)ccc2o1 [Compound 81, (5-(6-fluoro-1H-indol-3-yl)benzo[d]oxazol-2-yl)methanamine] | 1620
18 | Fc1ccc2c(-c3ccc4oc(CN5CCOCC5)nc4c3)c[nH]c2c1 [Compound 63, 5-(6-fluoro-1H-indol-3-yl)-2-(morpholinomethyl)benzo[d]oxazole] | 597
19 | Fc1ccc2c(-c3ccc4nc(C5CCNCC5)oc4c3)c[nH]c2c1 [Compound 55, 6-(6-fluoro-1H-indol-3-yl)-2-(piperidin-4-yl)benzo[d]oxazole] | 171
20 | CC(=O)N1CCC(c2nc3ccc(-c4c[nH]c5cc(F)ccc45)cc3o2)CC1 [Compound 56, 1-(4-(6-(6-fluoro-1H-indol-3-yl)benzo[d]oxazol-2-yl)piperidin-1-yl)ethanone] | 311
21 | NC(=O)Cn1cnc2ccc(-c3c[nH]c4cc(F)ccc34)cc21 [Compound 84, 2-(6-(6-fluoro-1H-indol-3-yl)-1H-benzo[d]imidazol-1-yl)acetamide] | 1020
22 | O=C(CCn1ncc2cc(-c3c[nH]c4cc(F)ccc34)ccc21)N1CCOCC1 [Compound 86, 3-(5-(6-fluoro-1H-indol-3-yl)-1H-indazol-1-yl)-1-morpholinopropan-1-one] | 646
23 | NC(=O)CCc1nc2ccc(-c3c[nH]c4cc(F)ccc34)cc2o1 [Compound 83, 3-(6-(6-fluoro-1H-indol-3-yl)benzo[d]oxazol-2-yl)propanamide] | 154

Next, values leading:

Row | IC50 [nM] | Compound
24 | 320 | O=c1oc2cc(-c3c[nH]c4cc(F)ccc34)ccc2n1C1CCNCC1 [Compound 136, 6-(6-fluoro-1H-indol-3-yl)-3-(piperidin-4-yl)benzo[d]oxazol-2(3H)-one]
25 | 3780 | CS(=O)(=O)NCc1nc2ccc(-c3c[nH]c4cc(Cl)ccc34)cc2o1 [Compound 127, N-((6-(6-chloro-1H-indol-3-yl)benzo[d]oxazol-2-yl)methyl)methanesulfonamide]
26 | 213 | O=C(CCn1ncc2cc(-c3c[nH]c4cc(F)ccc34)ccc21)N1CCNCC1 [Compound 91, 3-(5-(6-fluoro-1H-indol-3-yl)-1H-indazol-1-yl)-1-(piperazin-1-yl)propan-1-one]
27 | 508 | O=C1Cc2ccc(-c3c[nH]c4cc(F)ccc34)cc2N1 [Compound 92, 6-(6-fluoro-1H-indol-3-yl)indolin-2-one]
28 | 170 | CN(C)CCNC(=O)CCn1ncc2cc(-c3c[nH]c4cc(F)ccc34)ccc21 [Compound 88, N-(2-(dimethylamino)ethyl)-3-(5-(6-fluoro-H-indol-3-yl)-1H-indazol-1-yl)propanamide]
29 | 74 | O=S1(=O)NCc2cc(-c3c[nH]c4cc(F)ccc34)ccc21 [Compound 135, 5-(6-fluoro-1H-indol-3-yl)-2,3-dihydrobenzo[d]isothiazole 1,1-dioxide]
30 | 3680 | CN1C(=O)c2cc(-c3c[nH]c4cc(F)ccc34)ccc2S1(=O)=O [Compound 138, 5-(6-fluoro-H-indol-3-yl)-2-methylbenzo[d]isothiazol-3(2H)-one 1,1-dioxide]
31 | 446 | c1ccc2c(-c3ccc4ncoc4c3)c[nH]c2c1 [Compound 109, 6-(1H-indol-3-yl)benzo[d]oxazole]
32 | 464 | c1ccc2c(-c3ccc4[nH]ncc4c3)c[nH]c2c1 [Compound 104, 5-(1H-indol-3-yl)-1H-indazole]
33 | 979 | Fc1ccc2c(-c3ccc4nc(S)oc4c3)c[nH]c2c1 [Compound 112, 6-(6-fluoro-1H-indol-3-yl)benzo[d]oxazole-2-thiol]
34 | 225 | O=C1NC(=O)C(Cc2nc3ccc(-c4c[nH]c5cc(F)ccc45)cc3o2)N1 (stereo not shown) [Compound 129, 5-((6-(6-fluoro-1H-indol-3-yl)benzo[d]oxazol-2-yl)methyl)imidazolidine-2,4-dione]
35 | 298 | CN1CCN(C(=O)CCn2ncc3cc(-c4c[nH]c5cc(F)ccc45)ccc32)CC1 [Compound 87, 3-(5-(6-fluoro-1H-indol-3-yl)-1H-indazol-1-yl)-1-(4-methylpiperazin-1-yl)propan-1-one]
36 | 340 | C[C@@H]1CN[C@@H](C)CN1CCc1nc2ccc(-c3c[nH]c4cc(F)ccc34)cc2o1 (relative stereo) [Compound 141, 2-(2-(trans-2,5-dimethylpiperazin-1-yl)ethyl)-6-(6-fluoro-1H-indol-3-yl)benzo[d]oxazole]
37 | 372 | COc1nc2ccc(-c3c[nH]c4cc(F)ccc34)cc2o1 [Compound 116, 6-(6-fluoro-1H-indol-3-yl)-2-methoxybenzo[d]oxazole]
